Reference: patent US20170307610A1, “COMPOUNDS THAT BIND DYSTROGLYCAN AND USES THEREOF” (OREGON HEALTH & SCIENCE UNIVERSITY, priority 2014, published 2017)
Peptide text beside a SMILES is read from it. * marks the point of attachment. Cbz = O=C(OCc1ccccc1)*

Key:
Assay type in all cases: cell-based, mouse
E3D1 MECs [1] = assay: Steady-state laminin internalization, flow cytometry; conditions: 18 hrs; for MFI of steady-state laminin endocytosis in presence of MMP inhibitor: GM6001 50 μM (vehicle 20.2±1.82, n=4), BB2416 5 μM (vehicle 20.85, n=2); for effect of MMP inhibitor on steady-state laminin endocytosis: GM6001 50 μM, BB2416 5 μM
Protocol: Endocytic internalization of laminin was confirmed by multiple methods. Laminin was labeled with the pH-sensitive fluorescent label CypHer-5 (CyPher-Ln) to exclusively image internalized laminin in attached, living cells. The fluorophore CypHer-5 is non fluorescent at pH 7.4 and maximally fluorescent at pH 5.5, permitting fluorescence detection of laminin within intracellular acidic vesicles (pH 4.8-6.0). Following overnight incubation of MECs with CypHer-Ln, live cell imaging detected bright fluorescent vesicles moving rapidly within the cytoplasm (FIG. 3A). Intracellular laminin within the cytoplasm was also independently observed via removal of surface bound laminin followed by confocal imaging. MECs were exposed to 10 μg/ml Rhod-Ln for 18 hrs, trypsinized, washed with PBS/EDTA to remove surface-bound laminin, allowed to re-attach, and stained with the membrane marker FITC-concanavalin A (conA). […] This method of cell treatment permitted a quantitative, flow cytometry-based assay of laminin internalization. In this assay, cells incubated with Rhod-Ln were trypsinized, washed (as in FIG. 3B), and the remaining internal Rhod-Ln fluorescence quantified by flow cytometry. Using this assay, laminin internalization was confirmed in diverse cell types including in primary mammary epithelial cultures, mammary epithelial cell lines (E3D1, MEpG), […] fibroblasts (NIH 3T3 cells), primary astrocytes, and human cancer cell lines (breast and glioma).
(§1) To explore the dynamics of laminin internalization, steady-state time course experiments (measuring internalization in the continuous presence of labeled laminin) and pulsed time course experiments were performed. In pulsed time course experiments, the cells were exposed to exogenous Rhod-Ln at 4° C. to prevent internalization, excess unbound Rhod-Ln was washed away, and then cells were returned to 37° C. to allow synchronized internalization and trafficking to proceed. […] Following pulsed and synchronized laminin exposure, Rhod-Ln was again observed to internalize within 1 hour, but reached a maximum at 8 hours, after which the levels of internal laminin declined (FIG. 4A). After 24 hours, internal Rhod-Ln levels declined to ˜37% of the maxima, indicating degradation (MFI: 315±3.5 to 119±11.5). To determine if laminin was degraded using classical degradation pathways, pulsed time course experiments in the presence of leupeptin (lysosome inhibitor) or […] (proteasome inhibitor) were performed.
Laminin internalization could be mediated by either receptor-dependent or receptor independent mechanisms (e.g. pinocytosis). Steady-state laminin internalization was measured using flow cytometry in the presence of potential inhibitors and compared to internalization of 500S FITC-dextran, a molecule of similar molecular size to laminin known to be endocytosed by receptor-independent mechanisms. The specific inhibitor of dynamin, dynasore (Macia E et al, Dev Cell, 839-850 (2006); incorporated by reference herein), inhibited internalization of laminin by >75% (FIG. 6A). Under hypertonic sucrose, a condition known to inhibit receptor-mediated endocytosis (Heuser J E and Anderson R G, J Cell Biol 108, 389-400 (1989); incorporated by reference herein) laminin internalization was reduced by 65% (FIG. 6A). Addition of heparin, a molecule known to bind the laminin LG4-5 domain (Harrison D et al, J Biol Chem 282, 11573-11581 (2007); incorporated by reference herein), decreased laminin internalization by 69% relative to controls (FIG. 6A). […] Specifically, under steady state, laminin internalization was nearly linear throughout the 24 hour time course, whereas dextran internalization plateaued after 16 hrs.
Flow Cytometry—Cells were plated in 12 well plates at 200,000 cells/well. The following day, media was changed to serum-free media with or without 10 μg/ml rhodamine laminin or 40 μg/ml FITC-dextran (500S-Sigma-Aldrich Corp., St. Louis, Mo., USA). […]

E3D1 MECs [2] = assay: FITC-dextran (500S) internalization, flow cytometry; conditions: steady state, 24 hour time course
Protocol: Laminin internalization could be mediated by either receptor-dependent or receptor independent mechanisms (e.g. pinocytosis). Steady-state laminin internalization was measured using flow cytometry in the presence of potential inhibitors and compared to internalization of 500S FITC-dextran, a molecule of similar molecular size to laminin known to be endocytosed by receptor-independent mechanisms. The specific inhibitor of dynamin, dynasore (Macia E et al, Dev Cell, 839-850 (2006); incorporated by reference herein), inhibited internalization of laminin by >75% (FIG. 6A). Under hypertonic sucrose, a condition known to inhibit receptor-mediated endocytosis (Heuser J E and Anderson R G, J Cell Biol 108, 389-400 (1989); incorporated by reference herein) laminin internalization was reduced by 65% (FIG. 6A). Addition of heparin, a molecule known to bind the laminin LG4-5 domain (Harrison D et al, J Biol Chem 282, 11573-11581 (2007); incorporated by reference herein), decreased laminin internalization by 69% relative to controls (FIG. 6A). […]
Flow Cytometry—Cells were plated in 12 well plates at 200,000 cells/well. […] Using a BD FACScan flow cytometer (BD Biosciences, San Jose, Calif., USA), 10,000 cells/well were counted, background fluorescence from the cell counts with no added laminin subtracted and the mean fluorescence intensity values reported. […]

E3D1 MECs [3] = assay: Pulsed time course of Rhod-Ln internalization, flow cytometry; conditions: pulsed, 24 hrs post laminin labeling, n=4; for MFI of internal Rhod-Ln in presence of inhibitor: vehicle 105.5±3
Protocol: as §1
Laminin labeling—Laminin-111 (1 mg) (Sigma-Aldrich Corp., St. Louis, Mo., USA) was dialyzed twice overnight against 500 ml of PBS with 10 μM CaCl2. The dialyzed laminin was then reacted with 10 μg NHS-rhodamine, or a 50 fold molar excess of NHS409 CypHer5 (GE) for 2 hr on ice, followed by dialysis twice overnight against 500 ml of PBS with 10 μM CaCl2.
Flow Cytometry—Cells were plated in 12 well plates at 200,000 cells/well. The following day, media was changed to serum-free media with or without 10 μg/ml rhodamine laminin or 40 μg/ml FITC-dextran (500S-Sigma-Aldrich Corp., St. Louis, Mo., USA). Unless otherwise indicated, cells were incubated 18-24 hrs, washed once with PBS, and cells trypsinized. Cells were washed in 5 ml cold PBS/1 mM EDTA, pelleted, and resuspended in 1 ml PBS/1 mM EDTA. Using a BD FACScan flow cytometer (BD Biosciences, San Jose, Calif., USA), 10,000 cells/well were counted, background fluorescence from the cell counts with no added laminin subtracted and the mean fluorescence intensity values reported. Graphed data are compiled from duplicate wells from each experiment with a minimum of three separate experiments, unless indicated otherwise.

[4] = Mus musculus, steady-state, 10 μg/ml Rhod-Ln, 40 μM dynasore, 320 mM sucrose, 100 μg/ml heparin

With heparin the “inhibition of laminin internalization” value (E3D1 MECs [1]; steady-state, 10 μg/ml Rhod-Ln, 40 μM dynasore, 320 mM sucrose, 100 μg/ml heparin) was 69%.

In the case of FITC-dextran, the “time to plateau of dextran internalization” value (E3D1 MECs [2]) is reported as greater than 16 h.

For CC(C)C[C@@H](C=O)NC(=O)[C@H](CC(C)C)NC(=O)[C@H](CC(C)C)NC(=O)OCc1ccccc1 [MG-231] (Cbz-Leu-Leu-Leu-aldehyde), the “increase in internal Rhod-Ln compared to vehicle controls” value (E3D1 MECs [3]) was 59% and the “MFI of internal Rhod-Ln in presence of inhibitor” value (E3D1 MECs [3]) was 167.5±7.

For CNC(=O)[C@H](Cc1c[nH]c2ccccc12)NC(=O)[C@@H](CC(=O)NO)CC(C)C [GM6001], the “MFI of steady-state laminin endocytosis in presence of MMP inhibitor” value (E3D1 MECs [1]) was 18.62±1 and the “effect of MMP inhibitor on steady-state laminin endocytosis” value (E3D1 MECs [1]) was “no significant effect”.

OC[C@H]1O[C@@](CO)(O[C@H]2O[C@H](CO)[C@@H](O)[C@H](O)[C@H]2O)[C@@H](O)[C@@H]1O [sucrose] showed an inhibition at 320000 µM (E3D1 MECs [1]; [4]) of 65%.

CNC(=O)[C@@H](NC(=O)[C@H](CC(C)C)[C@H](O)C(=O)NO)C(C)(C)C [BB2416] was tested, and the “MFI of steady-state laminin endocytosis in presence of MMP inhibitor” value (E3D1 MECs [1]) was 20.46 and the “effect of MMP inhibitor on steady-state laminin endocytosis” value (E3D1 MECs [1]) was “no significant effect”.

In the case of CC(=O)N[C@@H](CC(C)C)C(=O)N[C@@H](CC(C)C)C(=O)N[C@H](C=O)CCCNC(=N)N [leupeptin], the “increase in internal Rhod-Ln compared to vehicle controls” value (E3D1 MECs [3]) is reported as 153% and the “MFI of internal Rhod-Ln in presence of inhibitor” value (E3D1 MECs [3]) is reported as 266±11.2.

For O=C(N/N=C/c1ccc(O)c(O)c1)c1cc2ccccc2cc1O [dynasore], the inhibition at 40 µM (E3D1 MECs [1]; [4]) was greater than 75%.
